This note sets out measurements from US5981558A, “DC107 derivatives” (Kyowa Hakko Kogyo Co., Ltd., priority 1996, dated 1999).

pIC50: −log10 of the molar value.

The subject of the first assay is Sarcoma 180 mouse solid tumor. Kind of assay: Antitumor activity against Sarcoma 180 mouse solid tumor. It counts as in vivo, mouse (ddY). The following applies: Sarcoma-180, iv, 168 h, read-out: T/C (tumor volume ratio treated/control). As to the method:
To a ddY mouse were intraperitoneally transplanted 5×10^6 sarcoma 180 cells. On the seventh day from the transplant, the cells were collected from the ascites, washed once with sterilized physiological saline, and then diluted with sterilized physiological saline to prepare a cell suspension having a concentration of 5×10^7 cells/mL. This suspension was transplanted in an amount of 0.01 mL to a subcutaneous part of the right axilla of each of male ddY mice each weighing 20±1 g.
A test compound was dissolved in physiological saline containing polyoxyethylene sorbitan monolaurate. At 24 hours after the tumor transplant, 0.2 mL of the solution was intravenously administered to the tail of each of a group of five mice.
For the compound `COCCOCCOCCOCCOCCOCC(=O)OCSC(=O)C(C)(O)C12CC/C(C)=C/C(O)C(=O)/C=C/C=C\c3csc(n3)C(C)N(C(=O)C1)[S+]2[O-]` (stereo not drawn) [Compound 37], the response vs control in vivo at 8 mg/kg stood at 36%. As for `C/C1=C\C(O)C(=O)/C=C/C=C\c2csc(n2)C(C)N2C(=O)CC(C(C)(O)C(=O)SCOC(=O)OCCN3CCCC3=O)(CC1)[S+]2[O-]` (stereo not drawn) [Compound 146], the response vs control in vivo at 4 mg/kg is 38%. For the compound `C/C1=C\C(OC2CCCCO2)C(=O)/C=C/C=C\c2csc(n2)C(C)N2C(=O)CC(C(C)(O)C(=O)SCc3oc(=O)oc3COC(=O)CN(C)C)(CC1)[S+]2[O-]` (stereo not drawn) [Compound 159], the response vs control in vivo at 32 mg/kg is 33%.

On to `COCCOCCOCCOCC(=O)OCSC(=O)C(C)(O)C12CC/C(C)=C/C(O)C(=O)/C=C/C=C\c3csc(n3)C(C)N(C(=O)C1)[S+]2[O-]` (stereo not drawn) [Compound 147], for which the response vs control in vivo at 2 mg/kg was 43%. Turning to `C/C1=C\C(O)C(=O)/C=C/C=C\c2csc(n2)C(C)N2C(=O)CC(C(C)(O)C(=O)SCc3oc(=O)oc3CO[C@@H]3C[C@@H](O)[C@H](O)[C@@H](CO)O3)(CC1)[S+]2[O-]` (stereo partly drawn) [Compound 152], the response vs control in vivo at 16 mg/kg amounted to 17%.

On to `COC(=O)[C@H](CCC(=O)OCSC(=O)C(C)(O)C12CCC(C)=CC(O)C(=O)C=CC=Cc3csc(n3)C(C)N(C(=O)C1)[S+]2[O-])NC(=O)C1(C)COC(C)(C)OC1` (stereo partly drawn) [Compound 27], for which the response vs control in vivo at 2 mg/kg was found to be 46%.

For a further assay, the system named is HeLa S3 cells. Kind of assay: HeLa S3 Cell Growth Inhibition Test. The following applies: HeLa S3; 72 hours incubation; Neutral Red; read-out: IC50, HeLa S3 cell growth inhibition. It counts as cell-based. As to the method:
In each well of a 96-well microtiter plate was placed 0.1 mL of HeLa S3 cells having a concentration of 8×10^3 cells/mL and prepared in an MEM culture medium containing 10% fetal bovine serum and 2 mM glutamine. After the cells were incubated overnight at 37° C. in a carbon dioxide incubator, a test compound suitably diluted with a medium was added to the wells in an amount of 0.05 mL for each well. The cells were incubated at 37° C. for 72 hours in a carbon dioxide incubator. After the culture supernatant was removed, 0.1 mL of a culture medium containing 0.02% Neutral Red was added to each well. The cells were then incubated at 37° C. for 1 hour in a carbon dioxide incubator to dye the cells. After the culture supernatant was removed, each residue was rinsed once with physiological saline and the pigment was extracted with 0.001 N hydrochloric acid/30% ethanol. The absorbance at 550 nm of each extract was measured with a microplate reader. The drug concentration required for the 50% inhibition of cell growth, which is referred to as IC50, was calculated by comparing the absorbance for untreated cells with those for cells treated with the drug in known concentrations.
`COC(=O)NCC(=O)OCSC(=O)C(C)(O)C12CC/C(C)=C/C(OC3CCCCO3)C(=O)/C=C/C=C\c3csc(n3)C(C)N(C(=O)C1)[S+]2[O-]` (single isomer, unassigned) [Compound 42]: the pIC50 is 7.33. The same measure, in the same setting: the value for `COC(=O)[C@H](CCC(=O)OCSC(=O)C(C)(O)C12CC/C(C)=C/C(OC3CCCCO3)C(=O)/C=C/C=C\c3csc(n3)C(C)N(C(=O)C1)[S+]2[O-])NC(=O)[C@@]12O[C@@H](CO)[C@@H](O)[C@@H]1OC(C)(C)O2` (single isomer, unassigned) [Compound 66] was 7.32.

The same assay, now with this note: Homo sapiens, HeLa S3, 72 h, HeLa S3; 72 hours incubation; Neutral Red; read-out: IC50, HeLa S3 cell growth inhibition.
Regarding `COC(=O)OCc1oc(=O)oc1CSC(=O)C(C)(O)C12CC/C(C)=C/C(OC3CCCCO3)C(=O)/C=C/C=C\c3csc(n3)C(C)N(C(=O)C1)[S+]2[O-]` (stereo not drawn) [Compound 106], the negative logarithm of the IC50 (pIC50) was 7.96. Turning to `COCCOCCOCCOCC(=O)OCc1oc(=O)oc1CSC(=O)C(C)(O)C12CC/C(C)=C/C(OC3CCCCO3)C(=O)/C=C/C=C\c3csc(n3)C(C)N(C(=O)C1)[S+]2[O-]` (stereo not drawn) [Compound 104], the pIC50 was 7.70. Still for that read-out and setting: with `COc1ccc(COCC(=O)OCSC(=O)C(C)(O)C23CCC(C)=CC(O)C(=O)C=CC=Cc4csc(n4)C(C)N(C(=O)C2)[S+]3[O-])cc1` (stereo not drawn) [Compound 13] the figure was 7.96; with `CCC/C=C(\CSC(=O)C(C)(O)C12CC/C(C)=C/C(OC3(OC)CCOCC3)C(=O)/C=C/C=C\c3csc(n3)C(C)N(C(=O)C1)[S+]2[O-])C(=O)OC` (stereo not drawn) [Compound 119], 6.06. On the same count and under the same terms, the value for `CC1=C(CSC(=O)C(C)(O)C23CC/C(C)=C/C(O)C(=O)/C=C/C=C\c4csc(n4)C(C)N(C(=O)C2)[S+]3[O-])C(=O)OC(C)(C)O1` (stereo not drawn) [Compound 121] was 5.82. The same measure, in the same setting: with `CC1=C(CSC(=O)C(C)(O)C23CC/C(C)=C/C(O)C(=O)/C=C/C=C\c4csc(n4)C(C)N(C(=O)C2)[S+]3[O-])C(=O)OC2(CCOCC2)O1` (stereo not drawn) [Compound 124] the figure was 6.02; with `CC(=O)OCc1oc(=O)oc1CSC(=O)C(C)(O)C12CC/C(C)=C/C(O)C(=O)/C=C/C=C\c3csc(n3)C(C)N(C(=O)C1)[S+]2[O-]` (stereo not drawn) [Compound 90], 6.89.

Staying with this assay, now noted: Homo sapiens, HeLa S3, 72 h, footnote *: Value after 72 hours of drug treatment; read-out: IC50, HeLa S3 cell growth inhibition.
Consider `CC1=CC(O)C(=O)C=CC=Cc2csc(n2)C(C)N2C(=O)CC(C(C)(O)C(=O)SCOC(=O)c3ccc(C(=O)O)cc3)(CC1)[S+]2[O-]` (stereo not drawn) [Compound 9], for which the pIC50 was 6.82.

Still in this assay, the particulars now being: Homo sapiens, HeLa S3, 72 h, read-out: IC50, HeLa S3 cell growth inhibition, HeLa S3; 72 hours incubation; Neutral Red.
In the case of `C/C1=C\C(OC2CCCCO2)C(=O)/C=C/C=C\c2csc(n2)C(C)N2C(=O)CC(C(C)(O)C(=O)SCOC(=O)c3cccc(O)c3)(CC1)[S+]2[O-]` (stereo not drawn) [Compound 69], the pIC50 is 7.12. The same measure, in the same setting: with `C/C1=C\C(OC2CCCCO2)C(=O)/C=C/C=C\c2csc(n2)C(C)N2C(=O)CC(C(C)(O)C(=O)SCc3oc(=O)oc3COC(=O)CN(C)C)(CC1)[S+]2[O-]` (stereo not drawn) [Compound 92] the figure was 8.57; with `CCC/C=C(\CSC(=O)C(C)(O)C12CC/C(C)=C/C(O)C(=O)/C=C/C=C\c3csc(n3)C(C)N(C(=O)C1)[S+]2[O-])C(=O)OC` (stereo not drawn) [Compound 118], 6.24; with `C/C1=C\C(OC2CCCCO2)C(=O)/C=C/C=C\c2csc(n2)C(C)N2C(=O)CC(C(C)(O)C(=O)SCc3oc(=O)oc3COC(=O)Oc3ccc([N+](=O)[O-])cc3)(CC1)[S+]2[O-]` (stereo not drawn) [Compound 107], 7.68. With `CC(=O)Oc1ccc(CCCC(=O)OCSC(=O)C(C)(O)C23CC/C(C)=C/C(OC4CCCCO4)C(=O)/C=C/C=C\c4csc(n4)C(C)N(C(=O)C2)[S+]3[O-])cc1` (stereo not drawn) [Compound 56], the pIC50 is 9.28. Same read-out and setting: with `C/C1=C\C(OC2CCCCO2)C(=O)/C=C/C=C\c2csc(n2)C(C)N2C(=O)CC(C(C)(O)C(=O)SCc3oc(=O)oc3CCl)(CC1)[S+]2[O-]` (stereo not drawn) [Compound 74] the figure was 7.72. The same measure, in the same setting: the value for `C/C1=C\C(OC2CCCCO2)C(=O)/C=C/C=C\c2csc(n2)C(C)N2C(=O)CC(C(C)(O)C(=O)SCOC(=O)c3ccc(O)cc3)(CC1)[S+]2[O-]` (stereo not drawn) [Compound 68] was 7.46; that for `COC(=O)Nc1cccc(C(=O)OCSC(=O)C(C)(O)C23CC/C(C)=C/C(OC4(OC)CCOCC4)C(=O)/C=C/C=C\c4csc(n4)C(C)N(C(=O)C2)[S+]3[O-])c1` (stereo not drawn) [Compound 58] was 7.42. Same read-out and setting: the value for `C/C1=C\C(O)C(=O)/C=C/C=C\c2csc(n2)C(C)N2C(=O)CC(C(C)(O)C(=O)SCOC(=O)c3ccc(O)cc3)(CC1)[S+]2[O-]` (stereo not drawn) [Compound 67] was 7.30. Consider `C/C1=C\C(OC2CCCCO2)C(=O)/C=C/C=C\c2csc(n2)C(C)N2C(=O)CC(C(C)(O)C(=O)SCc3oc(=O)oc3COC(=O)c3cccnc3)(CC1)[S+]2[O-]` (stereo not drawn) [Compound 93], for which the negative logarithm of the IC50 (pIC50) is 8.04. For `CC1=CC(O)C(=O)C=CC=Cc2csc(n2)C(C)N2C(=O)CC(C(C)(O)C(=O)SCOC(=O)CCCN3C(=O)C=CC3=O)(CC1)[S+]2[O-]` (stereo not drawn) [Compound 28], the pIC50 was 6.12.

For the compound `CC1=CC(O)C(=O)C=CC=Cc2csc(n2)C(C)N2C(=O)CC(C(C)(O)C(=O)SCOC(=O)CCNC(=O)[C@H]3O[C@@H]4OC(C)(C)O[C@@H]4[C@H]4OC(C)(C)O[C@H]43)(CC1)[S+]2[O-]` (stereo partly drawn) [Compound 21], the negative logarithm of the IC50 (pIC50) is 6.42. For the compound `C/C1=C\C(OC2CCCCO2)C(=O)/C=C/C=C\c2csc(n2)C(C)N2C(=O)CC(C(C)(O)C(=O)SCc3oc(=O)oc3COC(=O)CCC(=O)O)(CC1)[S+]2[O-]` (stereo not drawn) [Compound 95], the negative-log IC50 (pIC50) is 7.57. Same read-out and setting: with `CC1=CC(O)C(=O)C=CC=Cc2csc(n2)C(C)N2C(=O)CC(C(C)(O)C(=O)SCOC(=O)c3ccccc3)(CC1)[S+]2[O-]` (stereo not drawn) [Compound 6] the figure was 7.74; with `COC(=O)Nc1cccc(C(=O)OCSC(=O)C(C)(O)C23CC/C(C)=C/C(OC4CCCCO4)C(=O)/C=C/C=C\c4csc(n4)C(C)N(C(=O)C2)[S+]3[O-])c1` (stereo not drawn) [Compound 57], 7.44; with `COC(=O)[C@H](CCC(=O)OCSC(=O)C(C)(O)C12CC/C(C)=C/C(O)C(=O)/C=C/C=C\c3csc(n3)C(C)N(C(=O)C1)[S+]2[O-])NC(=O)C(C)(CO)CO` (stereo partly drawn) [Compound 61], 6.14. On the same count and under the same terms, with `C/C1=C\C(OC2CCCCO2)C(=O)/C=C/C=C\c2csc(n2)C(C)N2C(=O)CC(C(C)(O)C(=O)SCc3oc(=O)oc3COC=O)(CC1)[S+]2[O-]` (stereo not drawn) [Compound 89] the figure was 7.39.

The same assay, now with this note: Homo sapiens; HeLa S3; 72 hours incubation; Neutral Red; read-out: IC50, HeLa S3 cell growth inhibition.
With `CC[Si](CC)(CC)OC[C@H]1OC(OCc2oc(=O)oc2CSC(=O)C(C)(O)C23CC/C(C)=C/C(O)C(=O)/C=C/C=C\c4csc(n4)C(C)N(C(=O)C2)[S+]3[O-])C[C@@H](O[Si](CC)(CC)CC)[C@@H]1O[Si](CC)(CC)CC` (stereo partly drawn) [Compound 81], the pIC50 was 6.68. With `CCOC(=O)N1CCC2(CC1)OC(=O)C(CSC(=O)C(C)(O)C13CC/C(C)=C/C(O)C(=O)/C=C/C=C\c4csc(n4)C(C)N(C(=O)C1)[S+]3[O-])=C(C)O2` (stereo not drawn) [Compound 126], the negative logarithm of the IC50 (pIC50) is 5.26.

Staying with this assay, now noted: read-out: IC50, HeLa S3 cell growth inhibition; HeLa S3; 72 hours incubation; Neutral Red.
With `C/C1=C\C(OC2CCCCO2)C(=O)/C=C/C=C\c2csc(n2)C(C)N2C(=O)CC(C(C)(O)C(=O)SCOC(=O)CNC(=O)[C@@]34O[C@@H](CO)[C@@H](O)[C@@H]3OC(C)(C)O4)(CC1)[S+]2[O-]` (single isomer, unassigned) [Compound 62], the pIC50 was 7.15.
